The record followed here is paper PMC7217877, “N-AS-triggered SPMs are direct regulators of microglia in a model of Alzheimer’s disease” (Nature Communications, 2020).

One experiment has as its system astrocyte. As to the kind of experiment: N-AS generation in primary cultured cells (LC-MS/MS). Set-up: dose or concentration left out as unconfirmed. Conditions: Ab, replicates. Format: cell-based, C57BL/6 mice. On the procedure: (§1) Reactions were quenched by adding equal volume of cold methanol. A 100 μl aliquot of the reaction mixture was mixed with 30 μl of distilled water containing 5 ng ml^−1 of furosemide (internal standard) for 1 min and vigorously mixed with […] of ethyl acetate for 20 min. After centrifugation at 16,000×g for 10 min, the mixtures were kept for 2 h for freezing aqueous phase. The upper ethyl acetate layer was transferred to a clean tube and evaporated to dryness under a gentle stream of nitrogen. Then, the dried extract was reconstituted in 100 µl of mobile phase and 10 µl aliquot of the solution was injected into an Agilent 6470 Triple Quad LC–MS/MS system (Agilent, Wilmington, DE) coupled with an Agilent 1260 HPLC system. […] Quantification was carried out using multiple reaction monitoring (MRM) at m/z 340.3→263.3 for N-AS and m/z 328.9→284.8 for furosemide (internal standard) in negative ionization mode and collision energy of 20 eV. […]
(§2) To confirm the generation and roles of N-AS in neurons, cells from E18 C57BL/6 mice were prepared as previously described. […] Aβ 1–42 (10 μM, 24 h, Invitrogen, 03112) was exposed to neurons and the cells were analyzed for the generation and roles of N-AS. […]

Another experiment deals with microglia. The experiment is described as above. Further details: dose or concentration left out as unconfirmed. The conditions noted are these: Ab, replicates. The class given is cell-based, C57BL/6 mice. On the procedure:
as §1, §2

The next experiment has as its target T1, COX2 T564A (Homo sapiens, UniProt P35354, T564A).
T1 construct: His (N); made in house
T1 sequence (P35354 18-604 T564A): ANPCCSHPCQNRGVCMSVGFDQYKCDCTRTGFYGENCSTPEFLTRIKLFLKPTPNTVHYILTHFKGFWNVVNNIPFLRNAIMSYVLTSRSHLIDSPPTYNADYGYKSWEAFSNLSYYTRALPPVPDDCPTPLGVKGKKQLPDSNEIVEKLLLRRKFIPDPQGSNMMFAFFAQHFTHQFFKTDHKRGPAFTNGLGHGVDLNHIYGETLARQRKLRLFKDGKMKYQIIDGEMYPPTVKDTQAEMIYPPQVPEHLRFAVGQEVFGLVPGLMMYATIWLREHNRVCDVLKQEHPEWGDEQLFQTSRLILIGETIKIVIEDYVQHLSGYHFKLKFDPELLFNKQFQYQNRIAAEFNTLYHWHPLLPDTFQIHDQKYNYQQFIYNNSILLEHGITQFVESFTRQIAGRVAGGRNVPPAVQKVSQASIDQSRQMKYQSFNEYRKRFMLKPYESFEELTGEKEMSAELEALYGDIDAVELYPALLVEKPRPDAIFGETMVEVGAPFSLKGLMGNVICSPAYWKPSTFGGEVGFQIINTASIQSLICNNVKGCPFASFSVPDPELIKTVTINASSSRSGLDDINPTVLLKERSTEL
As to the kind of experiment: filter binding assay of [14C] N-AS to COX2. Conditions: 0.2 uM, replicates.

“And” between values parts separate entries of the source, which are not always exact repeats. Equal entries are not always repeated.

As for “Ab: Aβ 1–42 (Invitrogen, 03112) used to induce an AD environment in cells”, the “N-AS quantification (Fig 3a)” value in the experiment with astrocyte is 0.05349 and 0.0246 and 0.05789 and 0.03905 and 0.04125 and 0.04847; with microglia it was 1.15 and 1.365 and 1.237 and 1.2575 and 1.301 and 1.247.

For `CCCCCCCCCCCCC/C=C/[C@@H](O)[C@H](CO)NC(C)=O` [N-AS, N-((2S,3R,E)-1,3-Dihydroxyoctadec-4-en-2-yl)acetamide], at COX2 T564A, the “binding velocity (Vbinding)” value was 0.196 nM/min and 0.240 nM/min and 0.096 nM/min.
